Laboratory results from PMC10244465, “Native American ataxia medicines rescue ataxia-linked mutant potassium channel activity via binding to the voltage sensing domain” (Nature Communications, 2023).
Where two headings read alike, the source gives them in different places.

What was measured:
Format in all cases: cell-based
wild-type human Kv1.1 = target: T1, wild-type human Kv1.1 (Homo sapiens, UniProt Q09470); experiment: Two-electrode voltage clamp of oocytes expressing wild-type Kv1.1; settings: for shift of midpoint voltage-dependence of activation (V0.5 act): 100 µM; for effect on Kv1.1 activity: compound 100 µM; for EM (unclamped oocyte membrane potential) / Slope / V0.5 Normalized tail current: in presence of 100 µM compound
T1 construct: expressed in transfected cells; host or cells: Xenopus laevis oocytes injected with cRNA (pTLNx vector)
T1 sequence (Q09470 whole entry): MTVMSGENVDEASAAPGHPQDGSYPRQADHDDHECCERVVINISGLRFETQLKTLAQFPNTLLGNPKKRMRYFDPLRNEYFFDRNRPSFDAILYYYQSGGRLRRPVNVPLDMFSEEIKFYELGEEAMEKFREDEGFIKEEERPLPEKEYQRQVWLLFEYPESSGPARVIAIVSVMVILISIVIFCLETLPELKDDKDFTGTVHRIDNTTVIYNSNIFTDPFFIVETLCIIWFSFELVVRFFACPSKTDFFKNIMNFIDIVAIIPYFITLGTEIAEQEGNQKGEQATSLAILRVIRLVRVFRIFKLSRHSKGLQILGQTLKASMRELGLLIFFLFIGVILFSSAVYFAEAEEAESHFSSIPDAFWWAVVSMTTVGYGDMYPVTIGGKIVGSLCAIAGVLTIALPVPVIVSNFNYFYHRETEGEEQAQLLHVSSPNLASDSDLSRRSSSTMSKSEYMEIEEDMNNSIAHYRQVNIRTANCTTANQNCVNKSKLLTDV
Text: (§1) Wild-type and mutant Kv1 cDNAs were generated (Genscript, Piscataway, NJ) in the pTLNx expression vector. As previously described, we generated cRNA transcripts encoding human Kv1.1 (wild-type and mutant) and Kv1.2, by in vitro transcription using the mMessage mMachine kit (Thermo Fisher Scientific), after vector linearization, from cDNA sub-cloned into plasmids (pTLNx) incorporating Xenopus laevis β-globin 5’ and 3’ UTRs flanking the coding region to enhance translation and cRNA stability. We injected defolliculated stage V and VI Xenopus laevis oocytes (Xenoocyte, Dexter, MI, US) with Kv1 cRNAs (1–5 ng). We incubated the oocytes at 16 °C in ND96 oocyte storage solution containing penicillin and streptomycin, with daily washing, for 2 days prior to two-electrode voltage-clamp (TEVC) recording.
We performed TEVC at room temperature using an OC-725C amplifier (Warner Instruments, Hamden, CT) and pClamp10 software (Molecular Devices, Sunnyvale, CA) 2 days after cRNA injection as described in the section above. For recording, oocytes we placed in a small-volume oocyte bath (Warner) and viewed with a dissection microscope. We sourced chemicals from Sigma. We studied effects of plant extracts and of compounds, solubilized directly in bath solution (in mM): 96 NaCl, 4 KCl, 1 MgCl2, 1 CaCl2, 10 HEPES (pH 7.6). We introduced extracts or compounds into the oocyte recording bath by gravity perfusion at a constant flow of 1 ml per minute for 3 min prior to recording. Pipettes were of 1–2 MΩ resistance when filled with 3 M KCl. We recorded currents in response to voltage pulses between −80 mV and +40 mV at 10 or 20 mV intervals from a holding potential of −80 mV, to yield current-voltage relationships and examine activation kinetics. To calculate the voltage dependence of activation (V0.5), tail currents were recorded at a voltage pulse of −50 mV immediately following prepulse voltages between −80 mV and +40 mV. We analyzed data using Clampfit (Molecular Devices) and Graphpad Prism software (GraphPad, San Diego, CA, USA), stating values as mean ± SEM. We plotted raw or normalized tail currents vs. prepulse voltage and fitted with a single Boltzmann function:1 g=(A1−A2)/1+exp[V1/2−V/Vs]y+A2 where g is the normalized tail conductance, A1 is the initial value at -∞, A2 is the final value at +∞, V1/2 is the half-maximal voltage of activation and Vs the slope factor.

[1] = target: T2, Kv1.1/Kv1.1-L328V channels (Homo sapiens, UniProt Q09470, L328V); experiment: TEVC of oocytes co-injected with 50/50 wild-type/L328V Kv1.1 cRNA; settings: for effect on channel activity: compound 1 µM
T2 construct: expressed in transfected cells; host or cells: Xenopus laevis oocytes co-injected with 50/50 wild-type/mutant cRNA
T2 sequence (Q09470 whole entry, stated change not applied): as the sequence (Q09470 whole entry) above
T2 sequence (Q09470 whole entry L328V): as the sequence (Q09470 whole entry) above, with L328V counted along it
Protocol: We next tested effects on channels generated by co-injection of 50/50 wild-type/mutant Kv1.1 cRNA. Strikingly, gallic acid (1 µM) was able to hyperpolarize (by −15.5 ± 0.5 mV; n = 4; P < 0.0001) the V0.5 act of Kv1.1/Kv1.1-E283K channels, restoring voltage dependence typical of wild-type Kv1.1 (Fig. 7a–c), also inducing a −14 ± 0.7 mV hyperpolarization (n = 4; P = 0.0005) in EM of oocytes expressing Kv1.1/Kv1.1-E283K (Fig. 7d). […] Because of this hint at activity improvement in L155P channels we also applied higher concentrations (10 and 100 µM) of gallic acid, which produced a more robust (−12.5 ± 0.6 mV and −14.1 ± 0.6 mV, respectively) hyperpolarization of Kv1.1/Kv1.1-L155P V0.5 act (Fig. 8b, c) and hyperpolarized EM by −14.0 ± 0.6 mV and −15.2 ± 0.7 mV, respectively (Fig. 8d).
Wild-type and mutant Kv1 cDNAs were generated (Genscript, Piscataway, NJ) in the pTLNx expression vector. As previously described, we generated cRNA transcripts encoding human Kv1.1 (wild-type and mutant) and Kv1.2, by in vitro transcription using the mMessage mMachine kit (Thermo Fisher Scientific), after vector linearization, from cDNA sub-cloned into plasmids (pTLNx) incorporating Xenopus laevis β-globin 5’ and 3’ UTRs flanking the coding region to enhance translation and cRNA stability. […]
(§2) We performed TEVC at room temperature using an OC-725C amplifier (Warner Instruments, Hamden, CT) and pClamp10 software (Molecular Devices, Sunnyvale, CA) 2 days after cRNA injection as described in the section above. […] We recorded currents in response to voltage pulses between −80 mV and +40 mV at 10 or 20 mV intervals from a holding potential of −80 mV, to yield current-voltage relationships and examine activation kinetics. To calculate the voltage dependence of activation (V0.5), tail currents were recorded at a voltage pulse of −50 mV immediately following prepulse voltages between −80 mV and +40 mV. We analyzed data using Clampfit (Molecular Devices) and Graphpad Prism software (GraphPad, San Diego, CA, USA), stating values as mean ± SEM. […]

Kv1.1-L155P channels = target: T3, Kv1.1-L155P channels (Homo sapiens, UniProt Q09470, L155P); experiment: TEVC of oocytes expressing 100% Kv1.1-L155P; settings: compound 1 µM
T3 construct: expressed in transfected cells; host or cells: Xenopus laevis oocytes
T3 sequence (Q09470 whole entry L155P): as the sequence (Q09470 whole entry) above, with L155P counted along it
Text: As previously described[24], we generated cRNA transcripts encoding human Kv1.1 (wild-type and mutant) and Kv1.2, by in vitro transcription using the mMessage mMachine kit (Thermo Fisher Scientific), after vector linearization, from cDNA sub-cloned into plasmids (pTLNx) incorporating Xenopus laevis β-globin 5’ and 3’ UTRs flanking the coding region to enhance translation and cRNA stability. We injected defolliculated stage V and VI Xenopus laevis oocytes (Xenoocyte, Dexter, MI, US) with Kv1 cRNAs (1–5 ng). […]

Kv1.1-G311D channels = target: T4, Kv1.1-G311D channels (Homo sapiens, UniProt Q09470, G311D); experiment: TEVC of oocytes expressing 100% Kv1.1-G311D; settings: compound 1 µM
T4 construct: expressed in transfected cells; host or cells: Xenopus laevis oocytes
T4 sequence (Q09470 whole entry G311D): as the sequence (Q09470 whole entry) above, with G311D counted along it
Text: (§3) EA1 mutant G311D is in the S4-5 linker of Kv1.1 (Fig. 5a) and produces a 65% prepulse current reduction both in Kv1.1-G311D and in Kv1.1/Kv1.1-G311D channels[43],[44]; either channel type was minimally responsive to the plant extracts tested (Supplementary Figs. 3 and 4). EA1 mutant L328V (which is associated with tetany and hypomagnesemia) is located in the intracellular end of Kv1.1 S5 (Fig. 5a) and results in complete current loss in a dominant negative manner, i.e., Kv1.1-L328V and Kv1.1/Kv1.1-L328V channels are each nonfunctional. The traditional ataxia remedy plant extracts were unable to rescue Kv1.1-L328V or Kv1.1/Kv1.1-L328V function (Supplementary Figs. 5 and 6). EA1 mutant V408A is in the intracellular-proximal end of Kv1.1 S6 (Fig. 5a) and reduces current, speeds deactivation, and increases C-type inactivation of Kv1.1[46]. Here, Native American ataxia remedy extracts had relatively minor effects on Kv1.1-V408A activity, with nettle and Pacific ninebark (roots or leaves) inducing hyperpolarizing shifts in EM, and Pacific ninebark leaves inducing a negative shift in the voltage dependence of activation, although this was not quantifiable due to the very small tail currents (Supplementary Fig. 7). Effects of the extracts on Kv1.1/Kv1.1-V408A activity were also relatively minor (Supplementary Fig. 8). […]

Kv1.1-L328V channels = target: T5, Kv1.1-L328V channels (Homo sapiens, UniProt Q09470, L328V); experiment: TEVC of oocytes expressing 100% Kv1.1-L328V; settings: compound 1 µM
T5 construct: expressed in transfected cells; host or cells: Xenopus laevis oocytes
T5 sequence (Q09470 whole entry L328V): as the sequence (Q09470 whole entry) above, with L328V counted along it
Text: as §3, §2

Kv1.1-V408A channels = target: T6, Kv1.1-V408A channels (Homo sapiens, UniProt Q09470, V408A); experiment: TEVC of oocytes expressing 100% Kv1.1-V408A; settings: compound 1 µM
T6 construct: expressed in transfected cells; host or cells: Xenopus laevis oocytes
T6 sequence (Q09470 whole entry V408A): as the sequence (Q09470 whole entry) above, with V408A counted along it
Text: as §3, §2

[2] = target: T7, Kv1.1-I182S, E192I, K195N (Kv1.1–3 M) (Homo sapiens, UniProt Q09470, E191I/I183S/K196N); experiment: TEVC of oocytes expressing Kv1.1-3M
T7 construct: expressed in transfected cells; host or cells: Xenopus laevis oocytes
T7 sequence (Q09470 whole entry I183S/E191I/K196N): as the sequence (Q09470 whole entry) above, with I183S, E191I, K196N counted along it
Text: The functional data support a Kv1.1 gallic acid-binding site similar to that predicted by the MD simulation (Fig. 10f; Supplementary Movie 1).
as §1
as §2, with “above. For recording, oocytes we placed in a small-volume oocyte bath (Warner) and viewed with a dissection microscope. We sourced chemicals from Sigma. We studied effects of plant extracts and of compounds, solubilized directly in bath solution (in mM): 96 NaCl, 4 KCl, 1 MgCl2, 1 CaCl2, 10 HEPES (pH 7.6).” for “above.”

Row | Compound | shift of midpoint voltage-dependence of activation (V0.5 act) (wild-type human Kv1.1) | EC50 (wild-type human Kv1.1; EC50 for hyperpolarization of EM, oocytes expressing wild-type Kv1.1) | EC50 (wild-type human Kv1.1; EC50 for peak current augmentation, at −40 mV, Fig. 10) | EC50 (wild-type human Kv1.1; EC50 for ΔV0.5activation, dose response, Fig. 4) | lowest concentration that begins to hyperpolarize the resting membrane potential (wild-type human Kv1.1; Kv1.1-expressing oocytes) | effect on Kv1.1 activity (wild-type human Kv1.1) | maximal shift in V0.5activation (wild-type human Kv1.1; dose response, Fig. 4a) | EM (unclamped oocyte membrane potential) (wild-type human Kv1.1) | Slope (wild-type human Kv1.1) | V0.5 Normalized tail current (wild-type human Kv1.1) | effect on channel activity [1] | EM ([1]; in presence of 1 µM compound) | effect on channel activity (Kv1.1-L155P channels) | effect on channel activity (Kv1.1-G311D channels) | effect on channel activity (Kv1.1-L328V channels) | effect on channel activity (Kv1.1-V408A channels) | EC50 [2] | EC50 for peak current augmentation ([2]; at −40 mV) | maximal peak current augmentation compared to Kv1.1 ([2]; at −40 mV) | EC50 (wild-type human Kv1.1; dose response, Fig. 4, read-out: EC50 for ΔV0.5activation)
1 | O=C(O)c1cc(O)c(O)c(O)c1 [gallic acid] | −21.0 ± 2.5 mV | 18 ± 6 nM | 379 ± 28 nM | 54 ± 10 nM | 100 nM | highly efficacious Kv1.1 channel openers | −20 mV | -49.60 ± 0.91 mV | 12.10 ± 2.32 mV | -37.17 ± 2.59 mV | negligible | -33.00 ± 1.09 mV | ineffective at rescuing activity | ineffective at rescuing activity | ineffective at rescuing activity | ineffective at rescuing activity | 345 ± 38 nM | not measurable | reduced fivefold | –
2 | tannic acid | −25.6 ± 2.6 mV | – | – | – | – | highly efficacious Kv1.1 channel openers | – | -54.40 ± 1.23 mV | 13.67 ± 2.01 mV | -44.95 ± 2.49 mV | minimal | – | did not alter | did not alter | does not rescue | subtle improvements in Kv1.1-V408A function but slowed its activation | – | – | – | 19 ± 1.5 nM
